The experiment has as its system BL21*DE3 competent E. coli cells. Kind of experiment: Screening for glyphosate resistance on plates. It is filed as cell-based. The note with it: M63+ agar plates, 50 mM glyphosate, 0.05 mM IPTG, 50 ug/ml kanamycin, 36 hours at 37° C. The method, then:
Library ligations were transformed into BL21*DE3 competent E. coli cells (Invitrogen). The transformations were performed according to the manufacturer's instructions with the following modifications. After incubation for 1 hour at 37° C. in SOC medium, the cells were sedimented by centrifugation (5 minutes, 1000×g, 4° C.). The cells were washed with 1 ml M63+, centrifuged again, and the supernatant decanted. The cells were washed a second time with 1 ml M63+ and resuspended in 200 ul M63+.
For selection of mutant GRG1 enzymes conferring glyphosate resistance to E. coli, the cells were plated onto M63+ agar medium plates containing 50 mM glyphosate, 0.05 mM IPTG (isopropyl-beta-D-thiogalactopyranoside), and 50 ug/ml kanamycin. M63+ medium contains 100 mM KH2PO4, 15 mM (NH4)2SO4, 50 μM CaCl2, 1 μM FeSO4, 50 μM MgCl2, 55 mM glucose, 25 mg/liter L-proline, 10 mg/liter thiamine HCl, sufficient NaOH to adjust the pH to 7.0, and 15 g/liter agar. The plates were incubated for 36 hours at 37° C.
As for “L2-9 (PFINCGESGLSFRMFIPMVALSK; Clone L2-9)”, the “glyphosate resistance (growth on glyphosate plates)” value (from here on “glyphosate resistance”) is “glyphosate resistant”.

As for “L2-4 (PFIKCRESGLSMRMFAPMVALSK; Clone L2-4)”, the “glyphosate resistance” value is on record as “glyphosate resistant”.

On to “L2-7 (PFIECGESGLSIRLFTPLVALSK; Clone L2-7)”, for which the “glyphosate resistance” value is given as “glyphosate resistant”.

For the substance “L2-3 (PFIDCDESGLSIRMFTPIVALSK; Clone L2-3)”, the “glyphosate resistance” value is recorded as “glyphosate resistant”.

In the case of “L2-8 (PFIDCSESGLSFRMFAPLVALSK; Clone L2-8)”, the “glyphosate resistance” value was “glyphosate resistant”.

Regarding “L2-6 (PFIDCGESGLSFRMFVPIVALSK; Clone L2-6)”, the “glyphosate resistance” value is “glyphosate resistant”.

In the case of “L2-A (PFINCDESGLSFRMFTPIVALSK; Clone L2-A)”, the “glyphosate resistance” value is recorded as “glyphosate resistant”.

Values taken from patent US20070294785A1, “METHODS FOR […] DIVERSITY BY PERMUTATIONAL MUTAGENESIS” (Athenix Corporation, priority 2006, published 2007).
